How the values were obtained:
rat = experiment: Increase in intragastric pressure in the rat; type: in vivo; details: conscious restrained rats, subcutaneous administration, increase in intragastric pressure over 40 minute period after dosing
Method: Intragastric pressure changes were recorded from previously starved conscious but retrained rats using a saline filled catheter inserted into the lumen of the stomach via a permanent gastric fistula. The catheter was connected to a physiological pressure transducer and pressure changes recorded on a hot wire pen recorder. In each animal a pre-dose period of 40 minutes was allowed to obtain a measure of spontaneous activity. An index of activity was obtained by measuring the average height of pressure waves during 10 minute periods. Values for 4 such periods were obtained during assessment of spontaneous activity and for the 40 minute period after the subcutaneous administration of the compounds. Students 't' test was applied to the difference in average values obtained for spontaneous and post-compound activity.

mouse = experiment: Inhibition of apomorphine induced climbing in the mouse; type: in vivo; details: sc, apomorphine 1 mg/kg s.c., compounds given subcutaneously, climbing scored at 10, 20 and 30 minutes, I + number = inactive at that dose
Method: The test is based on that described by Protais, P., Constantin, J. and Schwartz, J.C.
Apomorphine 1 mg/kg s.c. induces mice to climb the wall of a wire cage (inverted food hopper - 11 x 7.5 x 18 cm high). Mice acclimatised in their home cages in groups of 5 are placed under the hoppers immediately after the injection of apomorphine 1 mg/kg s.c. At 10, 20 and 30 minutes after injection climbing behaviour is scored. The mice are observed for 30 seconds and scored according to the position in which they spend the majority of time, score O - four paws on floor of cage; score 1 - fore paws only on walls; score 2 - all paws on wall of cage. The scores at all 3 times and for each mouse are summed and mice drug treated subcutaneously compared to mice receiving apomorphine only.
Compounds were also tested for their ability to inhibit apomorphine induced climbing in the mouse.

Row | Compound | minimal effective dose (rat; Rattus norvegicus, sc, 40 min, read-out: Dose mg/kg Subcutaneously (minimum dose for activity)) [mg/kg] | ED50 (mouse) [mg/kg] | Dose mg/kg Subcutaneously (minimum dose for activity) (rat) [mg/kg]
1 | COc1cc(N)c(Cl)cc1C(=O)NC1CCN2CCCCN2C1 (racemic) [Example 2, (±) 4-Amino-5-chloro-2-methoxy-N-(3-{1,6-diazabicyclo [4,4,0]decyl}) benzamide] | 1 | 110 | –
2 | COc1cc(N)c(Cl)cc1C(=O)NC1CN2CCC(c3ccccc3)CN2C1 (centres unmarked) [Example 8, 4-Amino-5-chloro-2-methoxy-N-(3-{7-phenyl-1,5-diaza-bicyclo[4,3,0]nonyl})benzamide] | – | 4.5 | –
3 | (±) 4-Amino-5-chloro-2-methoxy-N-(7 or 8- {2-methyl-1,5-diazabicyclo[4,3,0]nonyl})benzamide [Example 14] | – | – | 0.5
4 | (±) 4-Amino-5-chloro-2-methoxy-N-(7 or 8-{2- methyl-1,5-diazabicyclo[4,3,0]nonyl})benzamide [Example 15] | – | – | 1.0
